Test results reported in patent US11273152B2, “TRPV2 antagonists” (Instituto de Medicina Molecular João Lobo Antunes, priority 2017, dated 2022).

Assays:
TRPC3 = TRPC3 (Homo sapiens, UniProt Q13507); test: Fluorescence cell-based assay, TRPC3; details: membrane potential dye, duplicate
Method: (§1) The assays were performed at SB Discovery (Glasgow, UK) on a fee-for-service basis. Human TRP cells were trypsinised, counted and seeded in black, clear-bottomed 96 well plates at a density of 50,000 cells per well in 100 μL volume and incubated overnight. Next day, the cells were loaded with calcium 5 dye or membrane potential dye. TRPV1-5, TRPA1, TRPM2, TRPM3, and TRPM8 were tested using the calcium 5 dye. TRPC1, TRPC3-7, and TRPM4-5 were tested using the membrane potential dye. Both dye solutions were made up in HEPES buffered Hank's balanced salt solution (HBSS). Dye solution (90 μL) was added to the wells and incubated at 37° C. for 1 hour. Test compounds and standard inhibitors (10 μL) were then added to the wells and incubated at room temperature for 10 minutes. The plates were then placed in the flexstation and fluorescence monitored every 1.52 seconds. After 20 seconds agonist was added and the fluorescence monitored for 2 minutes at 485 nm/525 nm and 530 nm/565 nm, Ex/Em, for the calcium 5 dye and the membrane potential dye respectively. Controls-TRPV1: capsazepine; TRPV2: tranilast; TRPV3: ruthenium red; TRPV4: ruthenium red; TRPV5: Gd^3+; TRPA1, ruthenium red; TRPC1: Gd^3+; TRPC3: Pyr3; TRPC4: ML 204; TRPC5: ML 204; TRPC6: ML 204; TRPC7: SKF 96365; TRPM2: 2-APB; TRPM3: Mef acid; TRPM4: clotrimazole; TRPM5: TPPO; TRPM8: 2-APB. […]

TRPC4 = TRPC4 (Homo sapiens, UniProt Q9UBN4); test: Fluorescence cell-based assay, TRPC4; details: membrane potential dye, duplicate
Sequence of TRPC4 (Q9UBN4 whole entry): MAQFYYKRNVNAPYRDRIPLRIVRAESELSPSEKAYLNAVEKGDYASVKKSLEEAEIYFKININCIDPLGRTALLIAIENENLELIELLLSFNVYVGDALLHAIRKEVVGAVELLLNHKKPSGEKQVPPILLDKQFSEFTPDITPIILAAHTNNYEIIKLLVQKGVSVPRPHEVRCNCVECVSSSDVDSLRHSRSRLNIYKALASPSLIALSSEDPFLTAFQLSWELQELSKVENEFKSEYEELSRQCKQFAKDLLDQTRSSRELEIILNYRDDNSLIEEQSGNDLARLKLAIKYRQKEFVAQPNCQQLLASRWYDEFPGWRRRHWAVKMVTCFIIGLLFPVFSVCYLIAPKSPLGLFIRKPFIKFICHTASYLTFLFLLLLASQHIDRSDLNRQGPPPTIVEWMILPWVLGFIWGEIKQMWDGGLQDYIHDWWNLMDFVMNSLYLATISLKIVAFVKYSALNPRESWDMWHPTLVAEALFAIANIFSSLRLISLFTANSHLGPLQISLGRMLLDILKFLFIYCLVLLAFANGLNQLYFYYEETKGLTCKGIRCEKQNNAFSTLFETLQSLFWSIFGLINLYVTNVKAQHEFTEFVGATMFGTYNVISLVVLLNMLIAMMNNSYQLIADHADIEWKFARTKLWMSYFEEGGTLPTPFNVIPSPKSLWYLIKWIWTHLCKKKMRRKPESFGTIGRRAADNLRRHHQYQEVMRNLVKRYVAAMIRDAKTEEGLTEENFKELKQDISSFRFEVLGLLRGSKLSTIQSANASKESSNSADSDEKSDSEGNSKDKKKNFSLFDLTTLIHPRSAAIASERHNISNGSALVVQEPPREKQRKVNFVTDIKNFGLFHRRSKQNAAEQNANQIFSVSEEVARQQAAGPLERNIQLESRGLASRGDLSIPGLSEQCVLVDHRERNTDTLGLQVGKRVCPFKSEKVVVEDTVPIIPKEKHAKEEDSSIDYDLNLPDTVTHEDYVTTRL
Method: as §1

TRPM8 = TRPM8 (Homo sapiens, UniProt Q7Z2W7); test: Fluorescence cell-based assay, TRPM8; details: calcium 5 dye, duplicate
Sequence of TRPM8 (Q7Z2W7 whole entry): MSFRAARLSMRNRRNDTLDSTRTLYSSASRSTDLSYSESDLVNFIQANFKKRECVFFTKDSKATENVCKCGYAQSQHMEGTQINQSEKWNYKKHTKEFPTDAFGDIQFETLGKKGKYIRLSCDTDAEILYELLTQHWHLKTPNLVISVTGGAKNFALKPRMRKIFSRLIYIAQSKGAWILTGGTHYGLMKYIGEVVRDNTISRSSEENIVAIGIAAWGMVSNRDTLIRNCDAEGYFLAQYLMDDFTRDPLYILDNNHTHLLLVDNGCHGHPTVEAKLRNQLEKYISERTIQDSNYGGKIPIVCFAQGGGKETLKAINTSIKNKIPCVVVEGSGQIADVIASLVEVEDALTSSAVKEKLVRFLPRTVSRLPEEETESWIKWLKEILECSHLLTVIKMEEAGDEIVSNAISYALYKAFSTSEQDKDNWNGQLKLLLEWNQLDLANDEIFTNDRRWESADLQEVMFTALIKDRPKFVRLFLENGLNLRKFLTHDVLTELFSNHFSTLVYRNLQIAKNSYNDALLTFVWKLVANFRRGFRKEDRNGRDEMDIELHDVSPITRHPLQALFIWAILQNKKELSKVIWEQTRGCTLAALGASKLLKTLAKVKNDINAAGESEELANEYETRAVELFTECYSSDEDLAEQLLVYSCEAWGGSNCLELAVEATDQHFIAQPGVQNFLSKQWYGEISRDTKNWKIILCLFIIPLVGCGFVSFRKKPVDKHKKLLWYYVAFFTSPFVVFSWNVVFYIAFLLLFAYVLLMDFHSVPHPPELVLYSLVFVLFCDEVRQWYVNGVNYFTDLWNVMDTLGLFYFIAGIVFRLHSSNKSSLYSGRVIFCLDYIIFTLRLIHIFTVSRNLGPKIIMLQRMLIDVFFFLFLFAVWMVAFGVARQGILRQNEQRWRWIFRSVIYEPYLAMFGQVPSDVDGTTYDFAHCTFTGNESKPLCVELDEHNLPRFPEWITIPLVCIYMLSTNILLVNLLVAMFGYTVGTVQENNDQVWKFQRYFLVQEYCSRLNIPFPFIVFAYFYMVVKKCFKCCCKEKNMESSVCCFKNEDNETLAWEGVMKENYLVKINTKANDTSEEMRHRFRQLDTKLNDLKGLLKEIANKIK
Method: as §1

TRPM4 = TRPM4 (Homo sapiens, UniProt Q8TD43); test: Fluorescence cell-based assay, TRPM4; details: membrane potential dye, duplicate
Sequence of TRPM4 (Q8TD43 whole entry): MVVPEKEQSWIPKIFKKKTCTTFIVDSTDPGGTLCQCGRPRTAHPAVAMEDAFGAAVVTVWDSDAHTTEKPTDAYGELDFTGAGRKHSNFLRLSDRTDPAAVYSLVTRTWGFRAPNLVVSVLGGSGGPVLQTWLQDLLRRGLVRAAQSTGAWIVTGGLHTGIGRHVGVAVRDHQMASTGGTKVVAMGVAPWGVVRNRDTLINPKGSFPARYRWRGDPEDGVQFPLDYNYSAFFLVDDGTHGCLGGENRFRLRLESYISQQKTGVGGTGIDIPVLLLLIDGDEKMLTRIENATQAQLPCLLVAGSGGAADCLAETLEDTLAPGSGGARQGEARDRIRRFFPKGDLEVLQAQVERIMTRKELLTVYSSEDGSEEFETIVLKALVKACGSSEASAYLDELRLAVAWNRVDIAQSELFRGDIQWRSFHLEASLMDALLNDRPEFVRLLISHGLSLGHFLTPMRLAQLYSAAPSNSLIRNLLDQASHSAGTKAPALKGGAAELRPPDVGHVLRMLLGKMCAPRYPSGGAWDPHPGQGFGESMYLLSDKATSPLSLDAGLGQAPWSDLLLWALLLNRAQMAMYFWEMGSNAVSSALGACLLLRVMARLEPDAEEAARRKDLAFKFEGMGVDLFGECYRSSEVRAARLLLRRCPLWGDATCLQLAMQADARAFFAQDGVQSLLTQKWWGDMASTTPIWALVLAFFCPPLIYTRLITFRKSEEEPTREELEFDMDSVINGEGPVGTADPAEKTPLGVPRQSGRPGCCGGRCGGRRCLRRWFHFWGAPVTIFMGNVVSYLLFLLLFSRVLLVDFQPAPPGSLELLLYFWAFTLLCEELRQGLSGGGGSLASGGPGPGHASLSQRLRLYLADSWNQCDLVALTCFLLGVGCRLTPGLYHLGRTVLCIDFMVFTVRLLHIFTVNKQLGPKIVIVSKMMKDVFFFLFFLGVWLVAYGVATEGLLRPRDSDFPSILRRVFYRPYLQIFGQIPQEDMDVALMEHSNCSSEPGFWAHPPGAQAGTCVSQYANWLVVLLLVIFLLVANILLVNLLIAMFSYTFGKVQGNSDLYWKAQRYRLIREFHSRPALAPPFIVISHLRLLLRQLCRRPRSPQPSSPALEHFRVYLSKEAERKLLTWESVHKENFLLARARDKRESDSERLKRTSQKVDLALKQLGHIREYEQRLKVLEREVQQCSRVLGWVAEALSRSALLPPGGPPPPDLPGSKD
Method: as §1

Huh-7 = test: Wound-healing scratch assay, Huh-7; format: cell-based
TRPV5 = TRPV5 (Homo sapiens, UniProt Q9NQA5); test: Fluorescence cell-based assay, TRPV5; details: calcium 5 dye, duplicate
Sequence of TRPV5 (Q9NQA5 whole entry): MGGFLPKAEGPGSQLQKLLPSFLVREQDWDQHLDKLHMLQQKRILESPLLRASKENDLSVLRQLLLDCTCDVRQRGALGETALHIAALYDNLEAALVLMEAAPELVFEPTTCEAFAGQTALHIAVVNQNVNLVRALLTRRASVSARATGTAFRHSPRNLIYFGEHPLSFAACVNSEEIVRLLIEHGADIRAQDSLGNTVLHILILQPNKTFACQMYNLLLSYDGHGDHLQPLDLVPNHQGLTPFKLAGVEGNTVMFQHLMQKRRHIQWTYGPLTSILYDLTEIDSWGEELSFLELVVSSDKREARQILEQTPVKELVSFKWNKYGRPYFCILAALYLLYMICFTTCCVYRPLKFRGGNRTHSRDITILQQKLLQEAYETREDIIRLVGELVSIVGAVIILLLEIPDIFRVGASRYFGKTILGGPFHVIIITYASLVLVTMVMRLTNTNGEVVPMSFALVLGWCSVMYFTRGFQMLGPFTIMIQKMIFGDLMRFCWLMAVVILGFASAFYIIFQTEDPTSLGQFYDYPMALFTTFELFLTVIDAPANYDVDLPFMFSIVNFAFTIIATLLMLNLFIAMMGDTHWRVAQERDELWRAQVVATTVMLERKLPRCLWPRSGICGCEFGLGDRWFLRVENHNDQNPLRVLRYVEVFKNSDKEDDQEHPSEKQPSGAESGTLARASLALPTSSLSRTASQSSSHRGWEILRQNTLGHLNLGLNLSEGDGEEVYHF
Method: as §1

NCI-60 cancer cell lines = test: NCI-60 Human Tumor Cell Lines Screen; format: cell-based; details: Gl50 and IC50 -z scores; five concentrations
Method: Piperlongumine was submitted to the NCI-60 Human Tumor Cell Lines Screen and its activity was measured at five concentration levels (0.01, 0.1, 1, 10 and 100 μM) in 59 NCI-60 cell lines with four dose response parameters (Gl50, IC50, LC50 and TGI). The TRPV2 normalized gene expression (averaged probe intensities combined from five microarray platforms) in NCI-60 cell lines was downloaded from the CellMiner database ^36,37. The Spearman correlation was used to test the interdependence between TRPV2 expression levels and piperlongumine IC50 values against 57 cancer cell lines.

Sequence of TRPC3 (Q13507 whole entry): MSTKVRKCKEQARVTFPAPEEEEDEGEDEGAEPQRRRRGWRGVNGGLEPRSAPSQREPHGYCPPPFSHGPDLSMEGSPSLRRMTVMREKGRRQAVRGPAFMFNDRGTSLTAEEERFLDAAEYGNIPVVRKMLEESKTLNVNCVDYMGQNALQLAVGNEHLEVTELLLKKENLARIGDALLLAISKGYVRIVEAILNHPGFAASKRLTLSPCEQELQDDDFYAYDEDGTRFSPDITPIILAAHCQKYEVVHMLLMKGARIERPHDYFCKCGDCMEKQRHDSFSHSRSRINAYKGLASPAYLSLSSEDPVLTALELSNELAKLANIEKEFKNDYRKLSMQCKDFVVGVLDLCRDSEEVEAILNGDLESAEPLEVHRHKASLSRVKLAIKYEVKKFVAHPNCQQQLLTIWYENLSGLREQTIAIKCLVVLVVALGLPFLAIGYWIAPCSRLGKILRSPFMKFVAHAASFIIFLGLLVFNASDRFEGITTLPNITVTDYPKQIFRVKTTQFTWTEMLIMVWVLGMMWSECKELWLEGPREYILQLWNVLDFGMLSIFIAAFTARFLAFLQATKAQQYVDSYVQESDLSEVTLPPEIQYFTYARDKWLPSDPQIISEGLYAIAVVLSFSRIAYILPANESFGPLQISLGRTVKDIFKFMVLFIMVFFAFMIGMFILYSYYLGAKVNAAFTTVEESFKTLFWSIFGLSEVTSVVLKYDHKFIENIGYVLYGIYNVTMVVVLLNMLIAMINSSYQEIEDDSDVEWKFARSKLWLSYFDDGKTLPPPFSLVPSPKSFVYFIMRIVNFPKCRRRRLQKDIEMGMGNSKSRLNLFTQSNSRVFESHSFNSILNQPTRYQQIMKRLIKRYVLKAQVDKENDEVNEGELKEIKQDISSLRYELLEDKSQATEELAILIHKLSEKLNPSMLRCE

For `COc1cc(/C=C/C(=O)N2CCC=CC2=O)cc(OC)c1OC` [Compound 1, piperlongumine], the IC50 (TRPC3) was greater than 100 µM, the IC50 (TRPC4) was greater than 100 µM and the IC50 (TRPM8) was greater than 100 µM. For the same compound, the IC50 (TRPM4) was greater than 100 µM, the “Cell migration, wound healing” value (Huh-7) was “reproducible” and the IC50 (TRPV5) was greater than 100 µM. For the same compound, the “Anti-proliferative activity across NCI-60, most sensitive tissues” value (NCI-60 cancer cell lines) was “blood, colon and skin cancer cell lines were found to be the most sensitive”.
